Where a name gives a salt, the structure may show the parent alone.

The term melting point denotes the temperature, or range, at which the solid turns liquid.

The compound `CCOCCn1c(N2CCCN(CCC3(c4ccc(OC)c(OC)c4)CCN(C(=O)c4cc(OC)c(OC)c(OC)c4)C3)CC2)nc2ccccc21` (centres unmarked) (as salt: salt) [Example 1, 1-(3,4,5-Trimethoxybenzoyl)-3-(2-(4-(1-(2-ethoxyethyl)-1H-benzimidazol-2-yl)[1,4]diazepan-1-yl)ethyl)-3-(3,4-dimethoxyphenyl)pyrrolidine] displayed a melting point of 90 to 100 °C.

Compound `CCOCCn1c(N2CCCN(CCC3(c4ccccn4)CCN(C(=O)c4cc(OC)c(OC)c(OC)c4)C3)CC2)nc2ccccc21` (centres unmarked) [Example 32, 1-(3,4,5-Trimethoxybenzoyl)-3-(2-(4-(1-(2-ethoxyethyl)-1H-benzimidazol-2-yl)[1,4]diazepan-1-yl)ethyl)-3-(pyrid-2-yl)pyrrolidine] gave a melting point of 40 to 42 °C.

(Values after patent US6423704B1, “Substituted 4-(1H-benzimidazol-2-yl)[1,4]diazepanes useful for the treatment of allergic diseases” (Aventis Pharmaceuticals Inc., priority 1995, dated 2002).)
